According to PubChem BioAssay (NCI):
“And” between values parts separate entries of the source, which are not always exact repeats. Identical values can stand only once.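 Compound exposure: 48 hours, 5 concentrations, 96-well plates. GI50 = concentration required for 50% inhibition of growth. TGI is the concentration that stops growth completely.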

Columns and labels:
Experiment in all cases: NCI tumour cell line growth inhibition, 48 h
MDA-MB-435 = test system: MDA-MB-435
OVCAR-3 ovarian = test system: OVCAR-3 ovarian
CAKI-1 renal = test system: CAKI-1 renal
NCI-H226 lung = test system: NCI-H226 lung
EKVX NSCLC = test system: EKVX NSCLC
MOLT-4 leukemia = test system: MOLT-4 leukemia
PC-3 prostate = test system: PC-3 prostate
K-562 leukemia = test system: K-562 leukemia
HCC-2998 colon = test system: HCC-2998 colon
LOX IMVI melanoma = test system: LOX IMVI melanoma
HOP-18 NSCLC = test system: HOP-18 NSCLC
UACC-62 melanoma = test system: UACC-62 melanoma
DU-145 prostate = test system: DU-145 prostate
MDA-N = test system: MDA-N
HS 578T breast = test system: HS 578T breast
LXFL 529 NSCLC = test system: LXFL 529 NSCLC
SW-620 colon = test system: SW-620 colon
HL-60(TB) leukemia = test system: HL-60(TB) leukemia
KM20L2 colon = test system: KM20L2 colon
KM12 colon = test system: KM12 colon
MCF7 breast = test system: MCF7 breast
M19-MEL melanoma = test system: M19-MEL melanoma
BT-549 breast = test system: BT-549 breast
RXF-631 renal = test system: RXF-631 renal
SNB-78 CNS = test system: SNB-78 CNS
DLD-1 colon = test system: DLD-1 colon
OVCAR-4 ovarian = test system: OVCAR-4 ovarian
MDA-MB-231 breast = test system: MDA-MB-231 breast
DMS 114 small cell lung = test system: DMS 114 small cell lung
DMS 273 small cell lung = test system: DMS 273 small cell lung
NCI-H460 lung = test system: NCI-H460 lung
HCT-116 colon = test system: HCT-116 colon
M14 melanoma = test system: M14 melanoma
A498 renal = test system: A498 renal
HOP-62 NSCLC = test system: HOP-62 NSCLC
SN12C renal = test system: SN12C renal
U251 CNS = test system: U251 CNS
SK-MEL-5 melanoma = test system: SK-MEL-5 melanoma
HOP-92 NSCLC = test system: HOP-92 NSCLC
RPMI-8226 leukemia = test system: RPMI-8226 leukemia
A549 NSCLC = test system: A549 NSCLC
RXF 393 renal = test system: RXF 393 renal
SF-268 CNS = test system: SF-268 CNS
SK-MEL-2 melanoma = test system: SK-MEL-2 melanoma
HCT-15 colon = test system: HCT-15 colon
SF-539 CNS = test system: SF-539 CNS
OVCAR-8 ovarian = test system: OVCAR-8 ovarian
IGROV1 ovarian = test system: IGROV1 ovarian
CCRF-CEM leukemia = test system: CCRF-CEM leukemia
SNB-19 CNS = test system: SNB-19 CNS
MALME-3M melanoma = test system: MALME-3M melanoma
SF-295 CNS = test system: SF-295 CNS
XF 498 CNS = test system: XF 498 CNS
SNB-75 CNS = test system: SNB-75 CNS
COLO 205 colon = test system: COLO 205 colon
NCI-H522 lung = test system: NCI-H522 lung
NCI-H23 lung = test system: NCI-H23 lung
UO-31 renal = test system: UO-31 renal
UACC-257 melanoma = test system: UACC-257 melanoma
ACHN renal = test system: ACHN renal
OVCAR-5 ovarian = test system: OVCAR-5 ovarian
SK-MEL-28 melanoma = test system: SK-MEL-28 melanoma
TK-10 renal = test system: TK-10 renal
SK-OV-3 ovarian = test system: SK-OV-3 ovarian
786-0 renal = test system: 786-0 renal

O=C1/C(=C/c2ccc(Cl)c(Cl)c2)CN(C(=O)CCN2CCOCC2)C/C1=C\c1ccc(Cl)c(Cl)c1
TGI (MDA-MB-435): 0.0309 µM | GI50 (OVCAR-3 ovarian): 1.08 µM | GI50 (CAKI-1 renal): 0.579 µM | TGI (CAKI-1 renal): 3.4 µM and 3.53 µM and 2.03 µM | TGI (NCI-H226 lung): 4.55 µM and 4.15 µM | GI50 (EKVX NSCLC): 1.37 µM | TGI (EKVX NSCLC): 4.35 µM and 6.41 µM and 3.09 µM | GI50 (MOLT-4 leukemia): 0.196 µM | TGI (PC-3 prostate): 0.0157 µM | GI50 (K-562 leukemia): 0.259 µM and 0.315 µM | TGI (K-562 leukemia): 0.585 µM and 2.99 µM | GI50 (HCC-2998 colon): 0.773 µM | TGI (HCC-2998 colon): 3.56 µM and 2.08 µM | TGI (LOX IMVI melanoma): 1.15 µM | GI50 (HOP-18 NSCLC): 2.11 µM | TGI (HOP-18 NSCLC): 5.96 µM and 5.49 µM | GI50 (UACC-62 melanoma): 1.92 µM | TGI (UACC-62 melanoma): 3.27 µM and 4.9 µM | TGI (DU-145 prostate): 0.148 µM | TGI (MDA-N): 0.0441 µM | TGI (HS 578T breast): > 10 µM | GI50 (LXFL 529 NSCLC): 0.499 µM | TGI (LXFL 529 NSCLC): 2.99 µM and 1.63 µM | GI50 (SW-620 colon): 1.39 µM and 0.229 µM and 0.249 µM | TGI (SW-620 colon): 3.32 µM and 0.563 µM and 0.746 µM | GI50 (HL-60(TB) leukemia): 0.362 µM and 0.277 µM | TGI (HL-60(TB) leukemia): 1.1 µM and 0.632 µM | GI50 (KM20L2 colon): 1.82 µM | TGI (KM20L2 colon): 2.79 µM and 4.01 µM | TGI (KM12 colon): 0.137 µM and 1.27 µM and 0.326 µM | TGI (MCF7 breast): 0.159 µM | GI50 (M19-MEL melanoma): 1.09 µM | TGI (M19-MEL melanoma): 3 µM and 2.4 µM | TGI (BT-549 breast): 0.0487 µM | GI50 (RXF-631 renal): 1.99 µM | TGI (RXF-631 renal): 8.25 µM and 5.87 µM | GI50 (SNB-78 CNS): 2.22 µM | TGI (SNB-78 CNS): 9.93 µM and 6.3 µM | GI50 (DLD-1 colon): 0.245 µM | TGI (DLD-1 colon): 0.409 µM and 0.785 µM | GI50 (OVCAR-4 ovarian): 1.56 µM | TGI (MDA-MB-231 breast): 0.00591 µM | GI50 (DMS 114 small cell lung): 0.346 µM | TGI (DMS 114 small cell lung): 2.34 µM and 1.33 µM | GI50 (DMS 273 small cell lung): 0.23 µM | TGI (DMS 273 small cell lung): 2.37 µM and 0.608 µM

O=C(O)C1C2CC3CC2CC31 (configuration not stated)
TGI (NCI-H460 lung): > 100 µM | TGI (OVCAR-3 ovarian): > 100 µM | TGI (CAKI-1 renal): > 100 µM | TGI (EKVX NSCLC): > 100 µM | TGI (MOLT-4 leukemia): > 100 µM | TGI (HCT-116 colon): > 100 µM | TGI (M14 melanoma): > 100 µM | TGI (A498 renal): > 100 µM | TGI (K-562 leukemia): > 100 µM | TGI (HOP-62 NSCLC): > 100 µM | TGI (SN12C renal): > 100 µM | TGI (U251 CNS): > 100 µM | TGI (LOX IMVI melanoma): > 100 µM | TGI (SK-MEL-5 melanoma): > 100 µM | TGI (UACC-62 melanoma): > 100 µM | TGI (HOP-92 NSCLC): > 100 µM | TGI (RPMI-8226 leukemia): > 100 µM | TGI (A549 NSCLC): > 100 µM | TGI (RXF 393 renal): > 100 µM | TGI (LXFL 529 NSCLC): > 100 µM | TGI (SF-268 CNS): > 100 µM | TGI (SK-MEL-2 melanoma): > 100 µM | TGI (SW-620 colon): > 100 µM | TGI (HCT-15 colon): > 100 µM | TGI (HL-60(TB) leukemia): > 100 µM | TGI (SF-539 CNS): > 100 µM | TGI (OVCAR-8 ovarian): > 100 µM | TGI (IGROV1 ovarian): > 100 µM | TGI (KM12 colon): > 100 µM | TGI (CCRF-CEM leukemia): > 100 µM | TGI (SNB-19 CNS): > 100 µM | TGI (MALME-3M melanoma): > 100 µM | TGI (SF-295 CNS): > 100 µM | TGI (XF 498 CNS): > 100 µM | TGI (SNB-75 CNS): > 100 µM | TGI (COLO 205 colon): > 100 µM | TGI (NCI-H522 lung): > 100 µM | TGI (RXF-631 renal): > 100 µM | TGI (NCI-H23 lung): > 100 µM | TGI (SNB-78 CNS): > 100 µM | TGI (UO-31 renal): > 100 µM | TGI (UACC-257 melanoma): > 100 µM | TGI (ACHN renal): > 100 µM | TGI (OVCAR-4 ovarian): > 100 µM | TGI (OVCAR-5 ovarian): > 100 µM | TGI (SK-MEL-28 melanoma): > 100 µM | TGI (TK-10 renal): > 100 µM | TGI (SK-OV-3 ovarian): > 100 µM | TGI (DMS 114 small cell lung): > 100 µM | TGI (786-0 renal): > 100 µM | TGI (DMS 273 small cell lung): > 100 µM
